The source of these data is ChEMBL document CHEMBL4765391, “Design, synthesis, and Structure-Activity Relationships (SAR) of 3-vinylindazole derivatives as new selective tropomyosin receptor kinases (Trk) inhibitors” (Eur J Med Chem, 2020).

Activity calls are given as the source filed them. No cut-off for these calls is given here.

One series concerns BaF3. Description: Antiproliferative activity against mouse BaF3 cells assessed as cell viability measured after 72 hrs by Micro plate reader method. It counts as functional, cell-based. Conditions: BaF3, 72 h.
The target of series [1] is ALK tyrosine kinase receptor (Homo sapiens, UniProt Q9UM73). The series is described as follows: Binding affinity to wild-type human partial length ALK (I1088 to E1409 residues) expressed in mammalian expression system by Kinomescan method relative to control.
The target of a further series is Aurora kinase C (Homo sapiens, UniProt Q9UQB9). Description: Binding affinity to wild-type human full length AURKC (M1 to S275 residues) expressed in bacterial expression system by Kinomescan method relative to control.
For series [2], the target named is Fibroblast growth factor receptor 1 (Homo sapiens, UniProt P11362). The series is described as follows: Binding affinity to wild-type human partial length FGFR1 (P357 to V669 residues) expressed in bacterial expression system by Kinomescan method relative to control.
Series [3] has as its target Receptor-type tyrosine-protein kinase FLT3 (Homo sapiens, UniProt P36888). The series is described as follows: Binding affinity to wild-type human partial length FLT3 (V592 to Y969 residues) expressed in bacterial expression system by Kinomescan method relative to control.
In series [4] the target is Vascular endothelial growth factor receptor 3 (Homo sapiens, UniProt P35916). The series is described as follows: Binding affinity to wild-type human partial length FLT4 (E821 to E1196 residues) expressed in bacterial expression system by Kinomescan method relative to control.
The target of series [5] is Tyrosine-protein kinase JAK1 (Homo sapiens, UniProt P23458). Description: Binding affinity to wild-type human partial length JAK1 JH1 catalytic domain (V856 to K1154 residues) expressed in bacterial expression system by Kinomescan method relative to control.
Series [6] concerns the target Tyrosine-protein kinase JAK3 (Homo sapiens, UniProt P52333). Description: Binding affinity to wild-type human partial length JAK3 JH1 catalytic domain (I781 to S1124 residues) expressed in mammalian expression system by Kinomescan method relative to control.
In series [7] the target is Proto-oncogene tyrosine-protein kinase ROS (Homo sapiens, UniProt P08922). The series is described as follows: Binding affinity to wild-type human partial length ROS1 (A1921 to N2240 residues) expressed in bacterial expression system by Kinomescan method relative to control.
The nature of series [8]: AUC (0 to infinity) in Sprague-Dawley rat at 2 mg/kg, iv measured after 24 hrs by LC-MS/MS analysis. Type of series: ADME, organism-based. Set-up: route intravenous, dose 2 mg/kg, time 24 hrs. To be noted: in vivo.
Series [9] has as its system Receptor-type tyrosine-protein kinase FLT3 (Homo sapiens), P36888 [N841I]. The series is described as follows: Binding affinity to FLT3 N841I mutant (unknown origin).
Series [10] concerns the target T1, BDNF/NT-3 growth factors receptor (Homo sapiens, UniProt Q16620). Conditions: BaF3, dose 0.3-200 nM, time 6.0 hrs.
In series [11] the target is T1, BDNF/NT-3 growth factors receptor. To be noted: BaF3, dose 0.3-200 nM, time 6.0 hrs. The source holds these as a separate data set.
For series [12] the target is unchanged. To be noted: BaF3, dose 0.3-200 nM, time 6.0 hrs. This is another data set of the same source.

T1 sequence (Q16620 32-822 limits assumed): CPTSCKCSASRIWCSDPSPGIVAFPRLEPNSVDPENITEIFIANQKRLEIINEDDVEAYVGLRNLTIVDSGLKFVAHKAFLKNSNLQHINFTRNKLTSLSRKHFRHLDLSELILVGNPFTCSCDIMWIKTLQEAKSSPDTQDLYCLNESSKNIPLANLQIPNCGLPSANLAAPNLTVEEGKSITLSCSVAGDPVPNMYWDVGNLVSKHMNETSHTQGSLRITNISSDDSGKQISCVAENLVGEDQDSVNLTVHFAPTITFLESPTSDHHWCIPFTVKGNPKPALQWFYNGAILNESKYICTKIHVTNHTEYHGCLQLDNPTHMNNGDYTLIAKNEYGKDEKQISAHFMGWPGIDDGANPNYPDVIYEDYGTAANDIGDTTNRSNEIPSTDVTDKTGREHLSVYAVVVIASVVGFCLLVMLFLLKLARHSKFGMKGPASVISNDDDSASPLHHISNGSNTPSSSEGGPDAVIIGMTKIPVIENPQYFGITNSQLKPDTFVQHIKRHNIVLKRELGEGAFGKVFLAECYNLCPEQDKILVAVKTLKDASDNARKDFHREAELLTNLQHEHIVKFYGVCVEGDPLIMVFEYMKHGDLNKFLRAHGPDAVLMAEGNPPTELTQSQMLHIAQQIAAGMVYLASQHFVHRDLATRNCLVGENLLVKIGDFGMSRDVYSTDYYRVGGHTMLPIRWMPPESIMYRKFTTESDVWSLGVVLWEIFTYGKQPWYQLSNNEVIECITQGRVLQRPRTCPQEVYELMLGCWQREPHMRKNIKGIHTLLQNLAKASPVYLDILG
Chain of Fibroblast growth factor receptor 1 (P11362 whole entry, the tested form may be a part): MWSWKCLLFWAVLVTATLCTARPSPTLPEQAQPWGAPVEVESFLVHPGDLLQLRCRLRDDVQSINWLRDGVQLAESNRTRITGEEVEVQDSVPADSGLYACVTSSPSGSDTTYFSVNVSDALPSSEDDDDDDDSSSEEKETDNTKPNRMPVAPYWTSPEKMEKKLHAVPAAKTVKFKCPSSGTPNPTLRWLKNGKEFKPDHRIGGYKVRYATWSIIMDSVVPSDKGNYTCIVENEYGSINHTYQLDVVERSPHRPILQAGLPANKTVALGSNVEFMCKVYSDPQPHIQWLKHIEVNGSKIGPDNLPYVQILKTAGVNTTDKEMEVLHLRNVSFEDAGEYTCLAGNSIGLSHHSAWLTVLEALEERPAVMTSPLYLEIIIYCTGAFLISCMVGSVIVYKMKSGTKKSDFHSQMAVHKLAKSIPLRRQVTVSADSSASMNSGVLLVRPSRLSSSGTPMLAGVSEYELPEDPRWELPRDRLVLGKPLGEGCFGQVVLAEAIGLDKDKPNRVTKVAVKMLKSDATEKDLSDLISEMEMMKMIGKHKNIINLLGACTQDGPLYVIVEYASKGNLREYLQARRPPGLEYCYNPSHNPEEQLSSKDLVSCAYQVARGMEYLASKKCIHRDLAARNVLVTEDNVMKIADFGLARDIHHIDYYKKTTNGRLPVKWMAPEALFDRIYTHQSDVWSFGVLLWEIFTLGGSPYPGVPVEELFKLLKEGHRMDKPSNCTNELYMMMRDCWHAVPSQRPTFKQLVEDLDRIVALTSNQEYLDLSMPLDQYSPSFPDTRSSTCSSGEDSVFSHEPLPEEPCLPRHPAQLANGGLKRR
Chain of Vascular endothelial growth factor receptor 3 (P35916 whole entry, the tested form may be a part): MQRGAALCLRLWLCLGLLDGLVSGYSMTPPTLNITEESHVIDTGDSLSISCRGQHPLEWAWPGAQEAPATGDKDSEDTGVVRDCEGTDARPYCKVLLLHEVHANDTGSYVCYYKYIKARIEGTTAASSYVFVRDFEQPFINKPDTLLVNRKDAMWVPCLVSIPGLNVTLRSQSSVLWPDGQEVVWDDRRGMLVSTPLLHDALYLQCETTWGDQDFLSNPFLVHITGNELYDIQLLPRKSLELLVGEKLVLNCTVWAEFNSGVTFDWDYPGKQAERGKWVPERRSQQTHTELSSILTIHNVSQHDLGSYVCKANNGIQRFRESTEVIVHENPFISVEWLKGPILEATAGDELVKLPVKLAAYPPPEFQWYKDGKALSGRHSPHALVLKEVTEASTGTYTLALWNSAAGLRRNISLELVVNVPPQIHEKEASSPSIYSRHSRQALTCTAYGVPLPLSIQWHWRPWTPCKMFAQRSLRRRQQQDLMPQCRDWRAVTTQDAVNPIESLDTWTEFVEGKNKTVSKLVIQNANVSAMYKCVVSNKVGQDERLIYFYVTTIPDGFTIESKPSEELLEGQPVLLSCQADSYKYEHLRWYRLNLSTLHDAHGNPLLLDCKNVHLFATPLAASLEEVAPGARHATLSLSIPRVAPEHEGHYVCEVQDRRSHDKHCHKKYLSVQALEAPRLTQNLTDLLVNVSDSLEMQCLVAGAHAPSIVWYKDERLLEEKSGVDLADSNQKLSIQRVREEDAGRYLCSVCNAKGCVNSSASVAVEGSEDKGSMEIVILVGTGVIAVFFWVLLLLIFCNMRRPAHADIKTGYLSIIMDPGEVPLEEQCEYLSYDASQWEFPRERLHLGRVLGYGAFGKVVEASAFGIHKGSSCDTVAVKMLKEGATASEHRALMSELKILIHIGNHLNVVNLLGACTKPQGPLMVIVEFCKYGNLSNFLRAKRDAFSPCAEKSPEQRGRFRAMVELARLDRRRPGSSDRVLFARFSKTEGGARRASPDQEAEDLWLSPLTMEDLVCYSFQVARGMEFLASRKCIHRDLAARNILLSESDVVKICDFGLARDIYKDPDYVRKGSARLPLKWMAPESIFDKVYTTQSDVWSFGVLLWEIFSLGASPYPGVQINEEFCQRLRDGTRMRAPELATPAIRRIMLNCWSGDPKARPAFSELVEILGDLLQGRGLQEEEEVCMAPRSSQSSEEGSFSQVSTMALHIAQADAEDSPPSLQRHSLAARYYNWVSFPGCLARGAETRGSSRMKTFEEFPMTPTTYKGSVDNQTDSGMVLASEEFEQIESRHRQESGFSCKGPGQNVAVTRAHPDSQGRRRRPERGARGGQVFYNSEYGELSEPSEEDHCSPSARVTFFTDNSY
Chain of Tyrosine-protein kinase JAK1 (P23458 whole entry, the tested form may be a part): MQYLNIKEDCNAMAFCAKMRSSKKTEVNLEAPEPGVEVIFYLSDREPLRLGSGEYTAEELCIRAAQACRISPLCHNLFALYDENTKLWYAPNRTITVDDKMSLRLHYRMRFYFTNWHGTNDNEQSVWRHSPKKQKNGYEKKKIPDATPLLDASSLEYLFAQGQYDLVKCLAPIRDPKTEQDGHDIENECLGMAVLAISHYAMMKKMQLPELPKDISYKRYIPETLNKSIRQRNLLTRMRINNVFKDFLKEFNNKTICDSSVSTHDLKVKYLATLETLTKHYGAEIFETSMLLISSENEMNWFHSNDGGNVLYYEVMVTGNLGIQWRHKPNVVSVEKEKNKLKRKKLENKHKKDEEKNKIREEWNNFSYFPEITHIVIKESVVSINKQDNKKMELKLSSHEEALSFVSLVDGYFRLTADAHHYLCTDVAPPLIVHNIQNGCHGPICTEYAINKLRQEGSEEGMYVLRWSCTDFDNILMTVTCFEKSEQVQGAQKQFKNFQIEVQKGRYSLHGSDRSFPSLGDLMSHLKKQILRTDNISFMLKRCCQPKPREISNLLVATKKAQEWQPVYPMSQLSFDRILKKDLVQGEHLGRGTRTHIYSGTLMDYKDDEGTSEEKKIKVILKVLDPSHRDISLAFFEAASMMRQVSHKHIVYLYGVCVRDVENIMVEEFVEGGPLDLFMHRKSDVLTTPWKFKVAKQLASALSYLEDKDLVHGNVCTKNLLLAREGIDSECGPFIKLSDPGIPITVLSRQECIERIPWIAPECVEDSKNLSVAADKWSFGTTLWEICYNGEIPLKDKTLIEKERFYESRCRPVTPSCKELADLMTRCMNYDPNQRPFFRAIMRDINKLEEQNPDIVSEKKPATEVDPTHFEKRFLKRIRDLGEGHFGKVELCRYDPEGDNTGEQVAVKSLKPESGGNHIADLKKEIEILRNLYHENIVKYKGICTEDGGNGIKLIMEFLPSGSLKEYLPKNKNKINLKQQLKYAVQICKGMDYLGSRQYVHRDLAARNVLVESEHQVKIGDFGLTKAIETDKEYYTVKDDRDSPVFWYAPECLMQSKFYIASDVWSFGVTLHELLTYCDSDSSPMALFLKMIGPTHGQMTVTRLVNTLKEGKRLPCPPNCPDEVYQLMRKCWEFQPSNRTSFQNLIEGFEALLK
Chain of Aurora kinase C (Q9UQB9 whole entry, the tested form may be a part): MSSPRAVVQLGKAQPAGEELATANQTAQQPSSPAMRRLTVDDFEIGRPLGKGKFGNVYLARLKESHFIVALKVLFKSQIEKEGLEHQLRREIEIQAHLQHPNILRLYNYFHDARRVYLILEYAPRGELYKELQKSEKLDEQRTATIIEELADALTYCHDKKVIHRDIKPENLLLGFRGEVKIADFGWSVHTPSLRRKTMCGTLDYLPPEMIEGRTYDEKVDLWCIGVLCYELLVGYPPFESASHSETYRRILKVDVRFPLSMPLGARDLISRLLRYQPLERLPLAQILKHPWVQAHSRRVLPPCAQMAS

In general, IC50 refers to the concentration needed to halve the response being measured. A word on the Kd: it is a measure of binding affinity in units of concentration. Lower therefore signals higher affinity. Broadly, the AUC(0-inf) is total exposure, with the tail of the curve extrapolated. A higher AUC(0-inf) goes with more exposure. In the case of `C[C@@H](Nc1ccc2[nH]nc(/C=C/c3ccccn3)c2c1)c1cc(F)cc(F)c1`, the IC50 in the series on BaF3 was 3120 nM. In addition, the Kd in series [1] amounted to 150 nM; at Aurora kinase C it was 570 nM; in [2], 76 nM; in series [3], 190 nM; in series [4], 45 nM; in series [5] it was 130 nM. Besides, the figures for the equilibrium dissociation constant (Kd) in series [6] and in [7] were 170 nM and 13 nM, respectively. The molecule also showed an AUC(0-inf) in [8] of 3.69 µM·h. Also, the inhibition result in series [9], in series [10], in series [11] and in [12] was “Active” throughout.
